Molecular target: CaMKK2 (Homo sapiens, UniProt Q96RR4)
Assay: CaMKK1/2 biochemical assay, 32P radiometric kinase assay (CaMKK2)
Settings: for inhibition at 0.2 µM: 0.2 μM compound, read-out: CaMKK2 % inhibition @ concentrations shown, 0.2 μM; for inhibition at 0.5 µM: 0.5 μM compound, read-out: CaMKK2 % inhibition @ concentrations shown, 0.5 μM
Procedure: The following is an example of a CaMKK1/2-biochemical assay. Compounds were tested for CaMKK1/2 inhibition using a ^32P radiometric kinase assay as follows: A freshly prepared kinase reaction buffer (20 mM Hepes (pH 7.5), 10 mM MgCl2, 1 mM EGTA, 0.02% Brij35, 0.02 mg/ml BSA, 0.1 mM Na3VO4, 2 mM DTT, 1% DMSO) was treated with Myelin Basic Protein (final concentration=20 μM), CaCl2) (final concentration=1.5 mM), Calmodulin (final concentration=0.96 μM) and either CaMKK2 (final reaction concentration=120 nM) or CaMKK1 (final reaction concentration=150 nM) and gently mixed. Compounds were added as aliquots from 10 mM DMSO stock solutions such that the final compound concentration in the assay was either 10 μM, 0.5 μM or 0.2 μM. This mixture was allowed to incubate for 20 minutes at room temperature. ^32P-ATP (specific activity 10 μCi/μL) was added and the mixture was allowed to incubate for 2 hours at room temperature. The reaction mixture was spotted onto P81 ion exchange paper. The kinase activity was detected by the filter binding method.

SMILES | inhibition at 0.2 µM | further results
O=C1OC[C@@H](c2ccccc2)N1c1ccc2[nH]nc(-c3cc4ccccc4[nH]3)c2c1 [Example 38, (R)-3-(3-(1H-indol-2-yl)-1H-indazol-5-yl)-4-phenyloxazolidin-2-one] | 50% | –
COc1ccc2cc(-c3n[nH]c4ccc(N5CCOC5=O)cc34)[nH]c2c1 [Example 19, 3-(3-(6-methoxy-1H-indol-2-yl)-1H-indazol-5-yl)oxazolidin-2-one] | 87% | –
O=C1OCCN1c1ccc2[nH]nc(-c3ccc(-c4ccccc4)cc3)c2c1 [Example 27, 3-(3-([1,1′-biphenyl]-4-yl)-1H-indazol-5-yl)oxazolidin-2-one] | 59% | –
O=C1OCCN1c1ccc2[nH]nc(-c3ccc4ccccc4c3)c2c1 [Example 25, 3-(3-(naphthalen-2-yl)-1H-indazol-5-yl)oxazolidin-2-one] | 67% | –
O=C1OC[C@@H](CO)N1c1ccc2[nH]nc(-c3cc4ccccc4[nH]3)c2c1 [Example 36, (R)-3-(3-(1H-indol-2-yl)-1H-indazol-5-yl)-4-(hydroxymethyl)oxazolidin-2-one] | 57% | –
O=C1OCCN1c1ccc2[nH]nc(/C=C/c3ccncc3)c2c1 [Example 11, (E)-3-(3-(2-(pyridin-4-yl)vinyl)-1H-indazol-5-yl)oxazolidin-2-one] | – | inhibition at 0.5 µM: 80%
O=C1CCCN1c1ccc2[nH]nc(-c3cc4ccccc4[nH]3)c2c1 [Example 42, 1-(3-(1H-indol-2-yl)-1H-indazol-5-yl)pyrrolidin-2-one] | 56% | –
O=C1OCCN1c1ccc2[nH]nc(/C=C/c3cccnc3)c2c1 [Example 10, (E)-3-(3-(2-(pyridin-3-yl)vinyl)-1H-indazol-5-yl)oxazolidin-2-one] | – | inhibition at 0.5 µM: 72%
O=C1OC[C@H](CO)N1c1ccc2[nH]nc(-c3cc4ccccc4[nH]3)c2c1 [Example 35, (S)-3-(3-(1H-indol-2-yl)-1H-indazol-5-yl)-4-(hydroxymethyl)oxazolidin-2-one] | 68% | –
CN(C)CCNC(=O)c1cccc(/C=C/c2n[nH]c3ccc(N4CCOC4=O)cc23)c1 [Example 29, (E)-N-(2-(dimethylamino)ethyl)-3-(2-(5-(2-oxooxazolidin-3-yl)-1H-indazol-3-yl)vinyl)benzamide] | 63% | –
O=C1OCCN1c1ccc2[nH]nc(-n3ccnc3)c2c1 [Example 5, 3-(3-(1H-imidazol-1-yl)-1H-indazol-5-yl)oxazolidin-2-one] | – | inhibition at 10 µM (10 μM compound, read-out: CaMKK2 % inhibition @ concentrations shown, 10 μM): 29%
O=C1OCCN1c1ccc2[nH]nc(-c3ccc4cc[nH]c4c3)c2c1 [Example 28, 3-(3-(1H-indol-6-yl)-1H-indazol-5-yl)oxazolidin-2-one] | 44% | –
O=C1OCCN1c1ccc2[nH]nc(/C=C/c3ccccc3)c2c1 [Example 9, (E)-3-(3-styryl-1H-indazol-5-yl)oxazolidin-2-one] | – | inhibition at 0.5 µM: 89%
O=C1OCCN1c1ccc2[nH]nc(-c3cc4c(Cl)cccc4[nH]3)c2c1 [Example 17, 3-(3-(4-chloro-1H-indol-2-yl)-1H-indazol-5-yl)oxazolidin-2-one] | 71% | –

Second part, led by results:

inhibition at 0.2 µM | SMILES | further results
78% | O=C(O)[C@@H]1CCC(=O)N1c1ccc2[nH]nc(-c3cc4ccccc4[nH]3)c2c1 [Example 44, (S)-1-(3-(1H-indol-2-yl)-1H-indazol-5-yl)-5-oxopyrrolidine-2-carboxylic acid] | –
38% | COC(=O)[C@@H]1CCC(=O)N1c1ccc2[nH]nc(-c3cc4ccccc4[nH]3)c2c1 [Example 43, methyl (S)-1-(3-(1H-indol-2-yl)-1H-indazol-5-yl)-5-oxopyrrolidine-2-carboxylate] | –
72% | CC(C)[C@H]1COC(=O)N1c1ccc2[nH]nc(-c3cc4ccccc4[nH]3)c2c1 [Example 39, (S)-3-(3-(1H-indol-2-yl)-1H-indazol-5-yl)-4-isopropyloxazolidin-2-one] | –
84% | COc1cccc2[nH]c(-c3n[nH]c4ccc(N5CCOC5=O)cc34)cc12 [Example 21, 3-(3-(4-methoxy-1H-indol-2-yl)-1H-indazol-5-yl)oxazolidin-2-one] | –

Reference: patent US11396505B2, “Inhibitors of CaMKK2 and uses of same” (New York University, priority 2019, dated 2022)
